Active and inactive are the calls of the source. The calls are words filed in the database; no cut-off is given here.
What was measured:
[1] = biological target: T1, Interleukin-1 receptor-associated kinase 1 (Homo sapiens, UniProt P51617); test: Displacement of polymer supported probe 25 binding to IRAK1 in human THP-1 cell lysates preincubated for 45 mins under shaking condition followed by probe addition and measured after 30 mins by mass spectrometry based chemoproteomic analysis; type: subcellular; settings: read-out: Kd(app)
[2] = biological target: Protein cereblon/Eukaryotic peptide chain release factor GTP-binding subunit ERF3A (Homo sapiens) (UniProt Q96SW2+P15170); test: Protac activity at CRBN/GSPT1 in LPS-induced human THP1 cells assessed as induction of GSPT1 degradation at 0.1 uM measured after 6 hrs by HPLC-MS based global proteomic analysis; type: cell-based; settings: THP-1
THP-1 [3] = test: Selectivity ratio of Kd(app) for displacement of polymer supported probe 25 binding to IRAK4 in human THP-1 cell lysates to Kd(app) for displacement of polymer supported probe 25 binding to IRAK3 in human THP-1 cell lysates
[4] = biological target: T2, Protein cereblon/Interleukin-1 receptor-associated kinase 3 (Homo sapiens, UniProt Q9Y616+Q96SW2); test: Protac activity at CRBN/IRAK3 in human THP1 cells assessed as induction of IRAK3 degradation at 0.1 uM measured after 2 to 72 hrs by Western blot analysis; type: cell-based; settings: THP-1, time hrs 2-72
Target sequence in this assay (Q96SW2 whole entry, looked up, one chain of several): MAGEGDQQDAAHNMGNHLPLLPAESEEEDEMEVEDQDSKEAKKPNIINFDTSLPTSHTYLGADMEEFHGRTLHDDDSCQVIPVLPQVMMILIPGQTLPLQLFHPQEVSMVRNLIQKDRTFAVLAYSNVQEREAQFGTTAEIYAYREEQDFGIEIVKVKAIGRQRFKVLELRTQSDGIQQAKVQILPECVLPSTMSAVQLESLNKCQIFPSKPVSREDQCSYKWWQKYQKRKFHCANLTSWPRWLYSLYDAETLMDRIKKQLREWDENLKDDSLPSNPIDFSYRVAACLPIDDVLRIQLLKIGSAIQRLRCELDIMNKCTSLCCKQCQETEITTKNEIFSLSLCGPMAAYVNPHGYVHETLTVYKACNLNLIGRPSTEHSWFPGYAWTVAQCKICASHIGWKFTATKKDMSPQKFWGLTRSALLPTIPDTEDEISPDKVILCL

[5] = biological target: T3, Interleukin-1 receptor-associated kinase 3 (Homo sapiens, UniProt Q9Y616); test: Inhibition of kinase tracer 236 binding to recombinant human full-length GST-tagged IRAK3 expressed in insect cells by Lanthascreen Eu kinase binding assay
T3 sequence (Q9Y616 whole entry): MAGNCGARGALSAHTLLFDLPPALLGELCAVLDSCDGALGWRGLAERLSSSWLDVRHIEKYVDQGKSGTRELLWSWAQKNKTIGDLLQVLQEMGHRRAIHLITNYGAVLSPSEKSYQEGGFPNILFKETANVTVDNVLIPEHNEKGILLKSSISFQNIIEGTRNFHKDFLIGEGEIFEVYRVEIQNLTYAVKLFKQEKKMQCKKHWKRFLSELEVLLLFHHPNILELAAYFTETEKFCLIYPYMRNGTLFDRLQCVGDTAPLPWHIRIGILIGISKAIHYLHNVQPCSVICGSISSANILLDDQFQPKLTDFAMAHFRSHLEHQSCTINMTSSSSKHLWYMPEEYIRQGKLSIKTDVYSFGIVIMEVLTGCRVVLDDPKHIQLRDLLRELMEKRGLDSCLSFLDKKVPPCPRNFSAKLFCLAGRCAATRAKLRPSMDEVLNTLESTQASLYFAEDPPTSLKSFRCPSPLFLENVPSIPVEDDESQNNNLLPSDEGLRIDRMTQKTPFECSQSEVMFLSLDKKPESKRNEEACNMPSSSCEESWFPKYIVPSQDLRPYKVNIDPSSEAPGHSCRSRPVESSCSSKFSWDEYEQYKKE

[6] = biological target: T2, Protein cereblon/Interleukin-1 receptor-associated kinase 3; test: Protac activity at CRBN/IRAK3 in LPS-induced human THP1 cells assessed as induction of IRAK3 degradation after 16 hrs by Western blot analysis; type: cell-based; settings: thp-1
Target sequence in this assay (Q96SW2 whole entry, one chain of several): as the sequence (Q96SW2 whole entry, looked up, one chain of several) above

[7] = biological target: Protein cereblon/Interleukin-1 receptor-associated kinase 1 (Homo sapiens) (UniProt P51617+Q96SW2); test: Protac activity at CRBN/IRAK1 in LPS-induced human THP1 cells assessed as induction of IRAK1 degradation at 0.1 uM measured after 6 hrs by HPLC-MS based global proteomic analysis; type: cell-based; settings: THP-1
THP-1 [8] = test: Selectivity ratio of Kd(app) for displacement of polymer supported probe 25 binding to CDK11 in human THP-1 cell lysates to Kd(app) for displacement of polymer supported probe 25 binding to IRAK3 in human THP-1 cell lysates
[9] = biological target: T4, Serine/threonine-protein kinase haspin (Homo sapiens, UniProt Q8TF76); test: Inhibition of GSG2 (unknown origin)
T4 sequence (Q8TF76 whole entry): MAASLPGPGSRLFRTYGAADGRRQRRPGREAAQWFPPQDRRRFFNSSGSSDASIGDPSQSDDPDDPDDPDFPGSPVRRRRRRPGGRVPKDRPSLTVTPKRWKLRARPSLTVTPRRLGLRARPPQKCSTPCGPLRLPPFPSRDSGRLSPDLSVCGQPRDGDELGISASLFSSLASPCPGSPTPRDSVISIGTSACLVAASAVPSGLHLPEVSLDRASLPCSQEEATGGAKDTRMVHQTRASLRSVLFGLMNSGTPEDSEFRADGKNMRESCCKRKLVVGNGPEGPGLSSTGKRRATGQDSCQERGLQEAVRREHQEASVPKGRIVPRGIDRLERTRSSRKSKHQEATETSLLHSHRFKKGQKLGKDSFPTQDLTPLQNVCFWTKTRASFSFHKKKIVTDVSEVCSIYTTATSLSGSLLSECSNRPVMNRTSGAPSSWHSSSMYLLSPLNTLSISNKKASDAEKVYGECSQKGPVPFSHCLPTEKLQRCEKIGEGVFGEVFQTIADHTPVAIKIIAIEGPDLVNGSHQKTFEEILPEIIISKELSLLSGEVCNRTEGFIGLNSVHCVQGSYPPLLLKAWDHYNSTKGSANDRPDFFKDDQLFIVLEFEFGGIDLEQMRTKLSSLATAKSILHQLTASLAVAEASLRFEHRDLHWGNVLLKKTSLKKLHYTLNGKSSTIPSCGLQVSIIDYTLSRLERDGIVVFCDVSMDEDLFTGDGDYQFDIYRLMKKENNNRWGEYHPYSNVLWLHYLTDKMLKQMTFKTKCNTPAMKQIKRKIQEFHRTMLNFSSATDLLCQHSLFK

[10] = biological target: T1, Interleukin-1 receptor-associated kinase 1; test: Inhibition of recombinant human N-terminal GST-tagged IRAK1 (194 to 712 residues) expressed in baculovirus expression system using 5-FAM-KKKVSRSGLYRSPSMPENLNRPR-COOH as substrate measured after 240 mins by mobility shift assay
[11] = biological target: Interleukin-1 receptor-associated kinase 3 (Homo sapiens) (UniProt Q9Y616); test: Inhibition of IRAK3 (unknown origin) at 0.1 uM relative to control
[12] = biological target: T5, Interleukin-1 receptor-associated kinase 4 (Homo sapiens, UniProt Q9NWZ3); test: Displacement of polymer supported probe 25 binding to IRAK4 in human THP-1 cell lysates preincubated for 45 mins under shaking condition followed by probe addition and measured after 30 mins by mass spectrometry based chemoproteomic analysis; type: subcellular; settings: read-out: Kd(app)
T5 sequence (Q9NWZ3 whole entry): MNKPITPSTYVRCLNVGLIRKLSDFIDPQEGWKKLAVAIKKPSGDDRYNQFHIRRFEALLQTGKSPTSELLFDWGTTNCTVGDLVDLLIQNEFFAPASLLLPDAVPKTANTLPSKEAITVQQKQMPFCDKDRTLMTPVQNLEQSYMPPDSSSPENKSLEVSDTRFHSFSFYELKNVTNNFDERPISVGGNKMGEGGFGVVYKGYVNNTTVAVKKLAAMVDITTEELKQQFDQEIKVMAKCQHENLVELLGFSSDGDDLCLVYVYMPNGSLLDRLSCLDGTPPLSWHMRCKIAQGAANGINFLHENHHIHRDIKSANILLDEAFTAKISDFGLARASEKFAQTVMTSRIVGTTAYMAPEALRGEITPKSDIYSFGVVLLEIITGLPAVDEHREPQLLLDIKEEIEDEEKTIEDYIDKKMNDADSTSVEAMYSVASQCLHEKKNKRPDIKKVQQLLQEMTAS

T1 sequence (P51617 whole entry): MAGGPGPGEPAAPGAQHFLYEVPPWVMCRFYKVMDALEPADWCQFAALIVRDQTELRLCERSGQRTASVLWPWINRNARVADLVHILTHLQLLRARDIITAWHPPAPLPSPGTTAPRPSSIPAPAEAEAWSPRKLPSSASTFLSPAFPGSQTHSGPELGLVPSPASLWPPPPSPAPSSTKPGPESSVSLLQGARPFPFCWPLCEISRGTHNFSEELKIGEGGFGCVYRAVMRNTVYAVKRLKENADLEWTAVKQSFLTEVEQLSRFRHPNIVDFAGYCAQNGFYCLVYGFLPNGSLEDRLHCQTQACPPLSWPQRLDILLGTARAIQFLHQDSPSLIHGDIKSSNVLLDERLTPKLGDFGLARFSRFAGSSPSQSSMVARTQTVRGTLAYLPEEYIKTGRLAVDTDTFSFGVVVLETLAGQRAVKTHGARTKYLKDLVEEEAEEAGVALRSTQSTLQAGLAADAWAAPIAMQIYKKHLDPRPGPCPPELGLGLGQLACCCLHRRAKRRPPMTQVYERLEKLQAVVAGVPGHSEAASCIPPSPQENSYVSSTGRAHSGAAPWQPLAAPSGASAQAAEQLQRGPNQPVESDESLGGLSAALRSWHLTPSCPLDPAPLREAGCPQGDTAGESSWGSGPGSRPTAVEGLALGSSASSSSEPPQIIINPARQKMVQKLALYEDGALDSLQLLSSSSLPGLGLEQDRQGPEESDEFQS
Chain of Protein cereblon/Eukaryotic peptide chain release factor GTP-binding subunit ERF3A (Homo sapiens) (P15170 whole entry, looked up): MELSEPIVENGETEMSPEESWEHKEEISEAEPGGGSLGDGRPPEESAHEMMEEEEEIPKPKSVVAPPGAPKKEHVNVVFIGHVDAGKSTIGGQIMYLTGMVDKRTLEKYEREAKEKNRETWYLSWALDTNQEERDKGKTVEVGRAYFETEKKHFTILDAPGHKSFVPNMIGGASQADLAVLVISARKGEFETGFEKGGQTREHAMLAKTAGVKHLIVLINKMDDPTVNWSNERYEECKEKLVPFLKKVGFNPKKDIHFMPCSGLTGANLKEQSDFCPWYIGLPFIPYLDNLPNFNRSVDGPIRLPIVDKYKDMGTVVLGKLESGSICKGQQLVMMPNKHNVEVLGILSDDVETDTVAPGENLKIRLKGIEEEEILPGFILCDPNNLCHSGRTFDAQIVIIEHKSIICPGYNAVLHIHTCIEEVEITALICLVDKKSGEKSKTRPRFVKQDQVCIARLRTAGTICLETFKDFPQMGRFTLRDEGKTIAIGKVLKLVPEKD
Chain of Protein cereblon/Eukaryotic peptide chain release factor GTP-binding subunit ERF3A (Homo sapiens) (Q96SW2 whole entry, looked up): as the sequence (Q96SW2 whole entry, looked up, one chain of several) above
Chain of Protein cereblon/Interleukin-1 receptor-associated kinase 1 (Homo sapiens) (P51617 whole entry, looked up): as the sequence (P51617 whole entry) above
Chain of Protein cereblon/Interleukin-1 receptor-associated kinase 1 (Homo sapiens) (Q96SW2 whole entry, looked up): as the sequence (Q96SW2 whole entry, looked up, one chain of several) above

Compound: CC(C)c1ccn2ncnc(N[C@H]3CC[C@@H](N4CCN(C(=O)CCC(=O)N5CCC(CCN6CCN(c7ccc8c(c7)C(=O)N(C7CCC(=O)NC7=O)C8=O)CC6)CC5)CC4)CC3)c12 (some centres not stated)
- Kd [1]: 2800 nM
- Activity [2]: inactive
- Selectivity ratio (THP-1 [3]): 105
- Activity [4]: Active
- IC50 [5]: 5 nM
- DC50 [6]: 2 nM
- Activity [7]: inactive
- Selectivity ratio (THP-1 [8]): > 880
- IC50 [9]: 110 nM
- IC50 [10]: 2300 nM
- inhibition [11]: 93%
- Kd [12]: 3600 nM

Reference: ChEMBL document CHEMBL4725370, “Discovery of Proteolysis-Targeting Chimera Molecules that Selectively Degrade the IRAK3 Pseudokinase” (J Med Chem, 2020)
